Results on eleven compounds are retold here after paper PMC12063055 (Crystal Growth & Design, 2025).

Values after ≈ are worked out from the molar mass of the structure shown. Read-outs that look alike come from different tables or passages of the source.

Series [1] in a line: Acidity values (pKa) of the molecules, literature values. Type of series: physicochemical. The conditions noted are these: pKa1 of HAL minus pKa1 of coformer.
Series [2] is described as follows: Solubility studies, shake-flask method with HPLC quantification of HAL. The conditions noted are these: for solubility in KCl pH 1.2: buffer KCl (0.2 M) pH 1.2, 24 h stirring at 25 °C; for solubility in KCl pH 1.2 / solubility in PBS pH 6.8: HAL concentration by HPLC at 248 nm; for solubility in PBS pH 6.8: buffer PBS (0.2 M) pH 6.8, 24 h stirring at 25 °C; for improvement over HAL (solubility in KCl pH 1.2): buffer KCl pH 1.2, ratio to HAL solubility; for improvement over HAL (solubility in PBS pH 6.8): buffer PBS pH 6.8, ratio to HAL solubility. Type of series: physicochemical. The protocol: A Scharlau (Barcelona, Spain) 100 C18 chromatographic column (3 μm, 150 × 4.6 mm) was set at 25 °C and used for compound separation, using an isocratic elution method. The mobile phase was composed of a mixture of 90% acetonitrile and 10% water. The flow rate was 0.8 mL/min, and the injection volume was 30 μL. ChemStation software was used for data acquisition and analysis (Agilent Technologies, Santa Clara, CA, USA).

For series [3] the following is noted: high permeability but poor solubility in aqueous solution; ref [5],[6]; cited from earlier work.
The mark [4] stands for this setting: 25 °C, pH 1.2, aqueous buffer, thermodynamic from solid, read-out: solubility in KCl pH 1.2.
Setting [5] is: 25 °C, pH 6.8, aqueous buffer, thermodynamic from solid, read-out: solubility in PBS pH 6.8.

For the compound `O=C(O)CCCC(=O)O` [Glutaric acid, glutaric acid], the “ΔpKa1 (difference of acidity of the coformer with HAL)” value in series [1] was found to be 3.71.
In general, solubility refers to the concentration that dissolves in the medium under given conditions. For `O=C(CCCN1CCC(O)(c2ccc(Cl)cc2)CC1)c1ccc(F)cc1.O=C(CCCN1CCC(O)(c2ccc(Cl)cc2)CC1)c1ccc(F)cc1.O=C(O)/C=C/C(=O)O.O=C(O)/C=C/C(=O)O` [(HAL^+)2·(FU^2–)·(FU)], the solubility at 24 h is 1060 ± 27 µg/mL in series [2] (setting [4]); 33 ± 4 µg/mL in series [2] (setting [5]); roughly 1000 µg/mL in series [2] (pH 1.2, read-out: solubility in KCl pH 1.2).
For the compound `O=C(CCCN1CCC(O)(c2ccc(Cl)cc2)CC1)c1ccc(F)cc1.O=C(O)CC(=O)O` [HAL^+·MO^–], the solubility at 24 h was 525 ± 37 µg/mL in series [2] (setting [4]) and 119 ± 2 µg/mL in series [2] (setting [5]).
Turning to `O=C(CCCN1CCC(O)(c2ccc(Cl)cc2)CC1)c1ccc(F)cc1.O=C(CCCN1CCC(O)(c2ccc(Cl)cc2)CC1)c1ccc(F)cc1.O=C(O)c1ccc(C(=O)O)cc1.O=C(O)c1ccc(C(=O)O)cc1` [(HAL^+)2·(TR^2–)·(TR)], in series [2], the “solubility in KCl pH 1.2” value was 0.678 ± 0.019 mg/mL and the “solubility in PBS pH 6.8” value was 0.051 ± 0.002 mg/mL.
In the case of `O=C(CCCN1CCC(O)(c2ccc(Cl)cc2)CC1)c1ccc(F)cc1` [HAL, Haloperidol, reference compound], the “Biopharmaceutics Classification System (BCS) class” value in series [3] is “Class II”. The solubility at 24 h in series [2] (KCl buffer (0.2 M) pH 1.2, 25 °C, pH 1.2, aqueous buffer, thermodynamic from solid, read-out: solubility in KCl pH 1.2) worked out at 831 ± 42 µg/mL (≈ 2210 µM); in series [2] (PBS buffer (0.2 M) pH 6.8, 25 °C, pH 6.8, aqueous buffer, thermodynamic from solid, read-out: solubility in PBS pH 6.8) it was 7 ± 1 µg/mL (≈ 18.6 µM).
Regarding `O=C(CCCN1CCC(O)(c2ccc(Cl)cc2)CC1)c1ccc(F)cc1.O=C(O)CCCCCC(=O)O` [HAL^+·PI^–], in series [2], the “solubility in KCl pH 1.2” value worked out at 1.246 ± 0.035 mg/mL, the “improvement over HAL (solubility in KCl pH 1.2)” value was 1.5×, the “solubility in PBS pH 6.8” value was found to be 0.072 ± 0.001 mg/mL and the “improvement over HAL (solubility in PBS pH 6.8)” value amounted to 9.7×.
Take `O=C(CCCN1CCC(O)(c2ccc(Cl)cc2)CC1)c1ccc(F)cc1.O=C(O)/C=C\C(=O)O` [HAL^+·ME^–]: the solubility at 24 h was 1400 ± 20 µg/mL in series [2] (setting [4]) and 74 ± 4 µg/mL in series [2] (setting [5]). Besides, the “solubility of the salt relative to the ionic cocrystal (HAL^+)2·(FU^2–)·(FU)” value in series [2] (both phases with C4 coformers) was “twice”.
With `O=C(CCCN1CCC(O)(c2ccc(Cl)cc2)CC1)c1ccc(F)cc1.O=C(CCCN1CCC(O)(c2ccc(Cl)cc2)CC1)c1ccc(F)cc1.O=C(O)CCCCCCC(=O)O.O=C(O)CCCCCCC(=O)O` [(HAL^+)2·(SU^2–)·(SU)], in series [2], the “solubility in KCl pH 1.2” value is listed as 1.074 ± 0.036 mg/mL, the “improvement over HAL (solubility in KCl pH 1.2)” value was 1.3×, the “solubility in PBS pH 6.8” value amounted to 0.017 ± 0.001 mg/mL and the “improvement over HAL (solubility in PBS pH 6.8)” value turned out to be 2.3×.
`O=C(O)CCCCCC(=O)O` [Pimelic acid, pimelic acid]: in series [1], the “ΔpKa1 (difference of acidity of the coformer with HAL)” value amounted to 3.55.
The same measure, in the same setting: to `O=C(O)CCCCCCC(=O)O` [Suberic acid, suberic acid] belongs 3.52.
As for `O=C(CCCN1CCC(O)(c2ccc(Cl)cc2)CC1)c1ccc(F)cc1.O=C(O)CCCC(=O)O` [HAL^+·GU^–], in series [2], the “solubility in KCl pH 1.2” value is recorded as 1.021 ± 0.012 mg/mL and the “solubility in PBS pH 6.8” value worked out at 0.048 ± 0.001 mg/mL.
